Measured values published in patent US20200288710A1, “SUBSTITUTED SULPHONAMIDES FOR CONTROLLING ANIMAL PESTS” (BAYER CROPSCIENCE AKTIENGESELLSCHAFT, priority 2016, published 2020).

Assays:
Assay type in all cases: in vivo
Meloidogyne incognita = Meloidogyne incognita test; conditions: 336 h, lettuce, after 14 days, read-out: nematicidal efficacy (formation of galls)
Protocol: Meloidogyne incognita Test Solvent: 125.0 parts by weight of acetone To produce a suitable active compound preparation, 1 part by weight of active compound is mixed with the stated amount of solvent and the concentrate is diluted with water to the desired concentration. Vessels are filled with sand, active compound solution, an egg/larvae suspension of the southern rootknot nematode (Meloidogyne incognita) and lettuce seeds. The lettuce seeds germinate and the plants develop. The galls develop on the roots. After 14 days, the nematicidal efficacy in % is determined by the formation of galls. 100% means that no galls were found; 0% means that the number of galls on the treated plants corresponds to the untreated control.

Myzus persicae [1] = test: Myzus persicae spray test (Chinese cabbage leaf discs); conditions: foliar, 120 h, 500 g/ha, after 5-6 days, read-out: efficacy
Method in brief: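 Formulated compound in acetone/dimethylformamide, diluted in water with 1000 ppm emulsifier, was sprayed onto Brassica pekinensis leaf discs carrying mixed-stage Myzus persicae. Percent mortality was read 5-6 days later (0% = no aphids killed, 100% = all killed).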

Myzus persicae [2] = test: Myzus persicae oral test; conditions: 120 h, 20 ppm, oral uptake, after 5 days, read-out: efficacy
Method in brief: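 Aphids of mixed ages imbibe, through parafilm, compound solution (acetone stock, water-diluted) combined with sugar-supplemented IPL41 medium to 200 μl. Efficacy read at day 5 as percent killed, 0% meaning no deaths.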

SMILES | pest or weed control at 20 ppm (Meloidogyne incognita) | pest or weed control at 500 g/ha (Myzus persicae [1]) | pest or weed control at 20 ppm (Myzus persicae [2])
Cn1cc(C(=O)NS(=O)(=O)c2ccccc2Cl)nc1-c1ncccc1F [Example 499] | 90% | 100% | 100%
Cn1cc(C(=O)NS(=O)(=O)c2cccc(Cl)c2)nc1-c1ccccc1Cl [Example 33] | 100% | 90% | 100%
Cn1cc(C(=O)NS(=O)(=O)c2cccc3c2OCC3)nc1-c1c(F)cccc1F [Example 317] | 90% | 90% | 100%
Cn1cc(C(=O)NS(=O)(=O)c2ccccc2OC(F)(F)F)nc1-c1ccccc1Cl [Example 55] | 90% | 90% | 100%
Cn1cc(C(=O)NS(=O)(=O)c2ccc(Cl)cc2)nc1-c1c(Cl)cccc1Cl [Example 43] | 100% | 90% | 90%
COc1ccccc1S(=O)(=O)NC(=O)c1nc(-c2c(F)cccc2F)c(C)n1C [Example 310] | 100% | 90% | 
Cn1cc(C(=O)NS(=O)(=O)c2c(F)cccc2C(F)(F)F)nc1-c1c(F)cccc1F [Example 371] | 90% | 90% | 100%
CCc1c(C(=O)NS(=O)(=O)c2ccccc2Cl)nc(-c2c(F)cccc2F)n1C [Example 197] | 100% | 90% | 
CCOc1ccccc1S(=O)(=O)NC(=O)c1cn(C)c(-c2c(F)cccc2F)n1 [Example 16] | 90% | 90% | 
CCS(=O)(=O)NC(=O)c1cn(C)c(-c2ccccc2Cl)n1 [Example 64] | 90% | 90% | 
CCn1cc(C(=O)NS(C)(=O)=O)nc1-c1ccccc1Cl [Example 79] | 90% | 100% | 
CC(C)S(=O)(=O)NC(=O)c1cn(C)c(-c2ccccc2Cl)n1 [Example 193] | 90% | 100% | 
Cc1ccc(S(=O)(=O)NC(=O)c2cn(C)c(-c3c(F)cccc3F)n2)cc1 [Example 175] | 100% | 90% | 
CC(C)S(=O)(=O)NC(=O)c1cn(C)c(-c2c(F)cccc2Cl)n1 [Example 149] | 90% | 90% | 
Cn1cc(C(=O)NS(=O)(=O)c2ccsc2)nc1-c1c(F)cccc1F [Example 357] | 90% | 90% | 
COc1ccc(S(=O)(=O)NC(=O)c2cn(C)c(-c3c(F)cccc3F)n2)cc1 [Example 47] | 100% | 90% | 
CCc1cccc(OC)c1S(=O)(=O)NC(=O)c1cn(C)c(-c2c(F)cccc2F)n1 [Example 200] | 100% | 100% | 
COc1ccc(Cl)c(S(=O)(=O)NC(=O)c2cn(C)c(-c3ccccc3Cl)n2)c1 [Example 228] | 100% | 100% | 
CCOc1cccc(CC)c1S(=O)(=O)NC(=O)c1cn(C)c(-c2c(F)cccc2F)n1 [Example 335] | 90% | 90% | 
Cc1ccccc1S(=O)(=O)NC(=O)c1cn(C)c(-c2c(F)cc(F)cc2F)n1 [Example 6] | 100% | 100% | 
Cn1cc(C(=O)NS(=O)(=O)c2cc(Cl)sc2Cl)nc1-c1c(F)cccc1F [Example 356] | 90% | 90% | 
CCc1[nH]c(-c2ccc(F)cc2F)nc1C(=O)NS(=O)(=O)C(C)C [Example 123] | 90% | 90% | 
Cc1[nH]c(-c2ccccc2Cl)nc1C(=O)NS(=O)(=O)C(C)C [Example 625] | 100% |  | 90%
COc1cc(C(=O)NS(=O)(=O)c2ccccc2C)nn1-c1ccccc1Cl [Example 276] | 100% |  | 100%
Cc1[nH]c(-c2cccc(Cl)c2)nc1C(=O)NS(=O)(=O)c1ccccc1Cl [Example 233] | 90% |  | 100%
CCc1[nH]c(-c2cccc(Br)c2)nc1C(=O)NS(=O)(=O)c1ccccc1C [Example 134] | 90% |  | 100%
COCCS(=O)(=O)NC(=O)c1cn(C)c(-c2c(F)cccc2F)n1 [Example 141] | 90% |  | 90%

SMILES | pest or weed control at 20 ppm (Meloidogyne incognita) | pest or weed control at 500 g/ha (Myzus persicae [1]) | pest or weed control at 20 ppm (Myzus persicae [2])
Cn1cc(C(=O)NS(=O)(=O)c2cccc(Cl)c2)nc1-c1c(F)cc(F)cc1F [Example 8] | 100% | 90% | 
CCOc1c(Cl)cccc1S(=O)(=O)NC(=O)c1cn(C)c(-c2c(F)cccc2F)n1 [Example 314] | 90% |  | 100%
CCc1[nH]c(-c2ccc(F)c(F)c2)nc1C(=O)NS(=O)(=O)c1ccccc1C [Example 207] | 90% | 90% | 
Cn1cc(C(=O)NS(=O)(=O)c2ccc(Cl)cc2)nc1-c1ccccc1Cl [Example 230] | 100% | 100% | 
CCc1c(C(=O)NS(=O)(=O)c2ccccc2C)nc(-c2c(F)cccc2F)n1C [Example 199] | 90% |  | 100%
CC(C)c1ccccc1-c1nc(C(=O)NS(=O)(=O)c2ccccc2Cl)cn1C [Example 209] | 90% |  | 90%
CCc1ccccc1-c1nc(C(=O)NS(=O)(=O)c2ccccc2OC)cn1C [Example 498] | 90% |  | 100%
Cn1cc(C(=O)NS(=O)(=O)c2ccccc2)nc1-c1c(F)cccc1F [Example 48] | 90% | 90% | 
Cc1ccccc1-c1nc(C(=O)NS(=O)(=O)c2ccc(Cl)cc2)cn1C [Example 49] | 100% |  | 100%
Cn1cc(C(=O)NS(=O)(=O)c2cccc(F)c2Cl)nc1-c1c(F)cccc1F [Example 321] | 90% | 100% | 
CCn1c(C(=O)NS(=O)(=O)c2ccccc2Cl)nc(-c2c(F)cccc2F)c1C [Example 414] | 100% |  | 100%
Cn1cc(C(=O)NS(=O)(=O)c2ccc(C(F)(F)F)cc2Cl)nc1-c1c(F)cccc1F [Example 441] | 100% | 90% | 
Cc1ccccc1S(=O)(=O)NC(=O)c1cn(C)c(-c2cccc(C(C)C)c2)n1 [Example 331] | 90% |  | 100%
Cn1cc(C(=O)NS(=O)(=O)c2ccc(C(F)(F)F)cc2Br)nc1-c1c(F)cccc1F [Example 442] | 90% | 90% | 
COc1cccc(C)c1S(=O)(=O)NC(=O)c1cn(C)c(-c2c(F)cccc2F)n1 [Example 365] | 90% | 100% | 
CCn1c(C(=O)NS(=O)(=O)c2ccccc2OC)nc(-c2c(F)cccc2F)c1C [Example 416] | 90% |  | 90%
CC(C)Sc1cccc(Cl)c1S(=O)(=O)NC(=O)c1cn(C)c(-c2c(F)cccc2F)n1 [Example 386] | 90% |  | 100%
Cc1ccccc1S(=O)(=O)NC(=O)c1cc(C)n(-c2c(F)cccc2F)n1 [Example 139] | 90% | 90% | 
Cc1ccccc1S(=O)(=O)NC(=O)c1cn(C)c(-c2cccc3c2OC(F)(F)O3)n1 [Example 542] | 100% | 90% | 
Cc1cccc(C)c1-c1nc(C(=O)NS(=O)(=O)c2ccccc2Cl)cn1C [Example 477] | 90% |  | 90%
Cn1cc(C(=O)NS(=O)(=O)c2ccccc2Cl)nc1-c1cc(Cl)ccc1Cl [Example 511] | 100% |  | 100%
Cn1cc(C(=O)NS(=O)(=O)c2ccc(Cl)cc2)nc1-c1c(F)cc(F)cc1F [Example 9] | 100% | 90% | 
CCn1cc(C(=O)NS(=O)(=O)c2ccccc2C(F)(F)F)nc1-c1ccccc1Cl [Example 21] | 90% |  | 100%
COc1ccc(Cl)c(S(=O)(=O)NC(=O)c2nc(-c3ccccc3Cl)[nH]c2C)c1 [Example 239] | 90% |  | 100%
CC(C)CS(=O)(=O)NC(=O)c1cn(C)c(-c2c(F)cccc2F)n1 [Example 142] | 90% | 100% | 
CCc1[nH]c(-c2ccc(Cl)cc2)nc1C(=O)NS(=O)(=O)c1ccccc1C [Example 590] | 90% |  | 100%
COc1ccc(S(=O)(=O)NC(=O)c2cn(C)c(-c3ccccc3Cl)n2)cc1 [Example 34] | 100% | 90% | 
